Where “and” joins values, the source holds several entries; their conditions need not be identical. Identical values can stand only once.
Key:
HEK293 cells [1] = assay: HEK293 viability assay (resazurin); assay type: cell-based, human; conditions: for IC50: HEK293, 72 hr, top concentration 40 μM, n = 3
Experimental: (§1) To assess cytotoxicity of compounds in dose response, a resazurin-based assay was utilized to determine cell viability. In brief, HEK293 cells were grown in DMEM medium (Life Technologies) containing 10% foetal calf serum (FCS; Gibco). Cells were trypsinized, counted and seeded at 2,000 cells per well in 45 μl media into TC-treated 384-well plates (Falcon) and left to adhere overnight at 37°C, 5% CO2 and 95% humidity.
(§2) Test compounds were prepared as described above, to give a top final test concentration of 40 μM, 0.4% DMSO. Plates were incubated for 72 hr at 37°C, 5% CO2 and 95% humidity, then the media was removed and replaced by 35 μl of 44 μM resazurin in DMEM without FCS. The plates were incubated for another 4-6 hr at 37°C, 5% CO2 and 95% humidity before reading on an EnVision® Plate Reader (PerkinElmer) using fluorescence excitation/emission settings of 530 nm/595 nm. Determination of the% growth compared to controls (40 μM puromycin as positive and 0.4% DMSO as negative control) was performed in Microsoft® Excel 2010. Statistical analysis including IC50 determination and graphical output was performed in GraphPad Prism® 5 using nonlinear regression variable slope curve fitting.

[2] = tested on: P. falciparum CoA synthesis pathway; assay: Coenzyme A chemical rescue assay on P. falciparum; assay type: cell-based, Plasmodium falciparum; conditions: for CoA rescue (relative parasite number, % of untreated control): at 2 μM compound, with CoA supplementation; for IC50 shift upon CoA supplementation / antiplasmodial activity of control compounds upon CoA supplementation: eight-point dose response, n = 2; for IC50 shift upon CoA supplementation: fixed CoA (0.8-2 mM); for antiplasmodial activity of control compounds upon CoA supplementation: fixed CoA
Experimental: The well-established P. falciparum imaging assay was modified to allow assessment of chemical rescue with CoA. In brief, sorbitol (5% w/v) synchronization was performed twice, approximately 8 hr apart, on each synchronization day for two consecutive ring cycles, i.e., on day 1 and 3 of assay preparation. On day 2 the culture was split to approximately 2% trophozoite parasitaemia. On day 4 the culture was split to 1-1.5% trophozoite parasitaemia, which yielded approximately 8% ring parasitaemia after 48 hr (on day 5, i.e., the day of the assay set-up). Compound stocks (10 mM in 100% DMSO) were diluted 1:25 in sterile water, less than 24 hr prior to use. An additional 1:10 dilution was performed, resulting in a 1:250 overall compound dilution and a final DMSO concentration of 0.4%. For initial screening, compounds were tested at a final 2 μM concentration. […] The known P. falciparum CoA synthesis inhibitor, panthenol, was prepared as a 100 mM solution in 4% DMSO. The final concentration of the dose response curve of panthenol started at 10 mM and was serially diluted down to 100 nM. CoA was dissolved in water. […] Five μl of the 1:25 diluted test compound or control solutions were added to 384-well CellCarrier imaging plates (PerkinElmer). For the chemical rescue, 5 μl of CoA solution were added to ‘rescue’ wells and 5 μl water to all control and reference wells, respectively. Parasite culture was added to a final concentration of 1% parasitaemia (% P) and 0.3% haematocrit (% H). Plates were incubated for 72 hr at 37°C, 5% CO2 and 95% humidity. On day 8 the permeabilization and nuclear staining buffer was prepared in PBS containing 10 μg/ml saponin, 0.01% triton X, 5 mM EDTA (all: Sigma) and 0.5 μg/ml 4′,6-diamidino-2-phenylindole (DAPI; Life Technologies). The plates were left for at least 4 hr (typically overnight), before confocal imaging on an Opera™ High Content Screening Platform (PerkinElmer) at 405 nm excitation with a 20x water objective. Automated primary image analysis was performed concurrent with the imaging process, utilizing an Acapella® software (PerkinElmer) script to determine the number of parasites based on object size and fluorescence intensity. Determination of the % growth compared to controls (2 μM artemisinin as positive and 0.4% DMSO as negative control) was performed in Microsoft® Excel 2010. Statistical analysis including IC50 determination and graphical output was performed in GraphPad Prism® 5 using non-linear regression variable slope curve fitting. Cell-based high throughput screening (HTS) entails the distinct benefit that positive hits have already proven effective against the live parasite within its natural host erythrocyte environment. Modifications of an image-based assay were undertaken to identify compounds that interfere with the P. falciparum CoA pathway. The modification involved a chemical rescue approach adapted from a similar method used to investigate apicoplast function. The principle idea of the chemical rescue approach is that supplementation of an unbranched pathway’s end product – in this case CoA - should abrogate, or at least alleviate, negative growth effects of compounds inhibiting any step in the pathway. […] To identify new potential CoA synthesis inhibitors, the CoA chemical rescue approach was used to screen 144 compounds with known antiplasmodial activity identified by HTS in the Avery laboratory, in addition to the MMV malaria box. […] Compounds which rescued growth to at least 50% of control values and two-fold difference compared to treatment alone, were regarded as partial rescue hits.

[3] = tested on: Plasmodium falciparum strain 3D7; assay: Plasmodium falciparum growth inhibition imaging assay; assay type: cell-based; conditions: for parasite growth inhibition: 2 μM; for IC50: P. falciparum 3D7, 72 hr; for IC50 / P. falciparum growth: n = 3; for P. falciparum growth: 3D7, dose response
Experimental: In vitro parasite culture was maintained in RPMI with 10 mM Hepes (Life Technologies), 50 μg/ml hypoxanthine (Sigma) and 5 mg/ml AlbuMAX II® (Life Technologies). Human O + erythrocytes were obtained from the Australian Red Cross Blood Service (Agreement No: 13-04QLD-09). The parasites were maintained at 2-8% parasitaemia (% P) at 5% haematocrit (% H), incubated at 37°C, 5% CO2, 5%O2 and 90% N2 and 95% humidity. The well-established P. falciparum imaging assay was modified to allow assessment of chemical rescue with CoA. In brief, sorbitol (5% w/v) synchronization was performed twice, approximately 8 hr apart, on each synchronization day for two consecutive ring cycles, i.e., on day 1 and 3 of assay preparation. On day 2 the culture was split to approximately 2% trophozoite parasitaemia. On day 4 the culture was split to 1-1.5% trophozoite parasitaemia, which yielded approximately 8% ring parasitaemia after 48 hr (on day 5, i.e., the day of the assay set-up). Compound stocks (10 mM in 100% DMSO) were diluted 1:25 in sterile water, less than 24 hr prior to use. An additional 1:10 dilution was performed, resulting in a 1:250 overall compound dilution and a final DMSO concentration of 0.4%. For initial screening, compounds were tested at a final 2 μM concentration. For dose response curves of the active compounds, a semi-logarithmic serial dilution (containing three data points per log) was prepared at 40 μM top concentration for test compounds and 2 μM for the positive control, artemisinin. The known P. falciparum CoA synthesis inhibitor, panthenol, was prepared as a 100 mM solution in 4% DMSO. The final concentration of the dose response curve of panthenol started at 10 mM and was serially diluted down to 100 nM. CoA was dissolved in water. The final CoA concentration for optimal rescue results was determined for each CoA batch and ranged between 0.8-2 mM. Five μl of the 1:25 diluted test compound or control solutions were added to 384-well CellCarrier imaging plates (PerkinElmer). For the chemical rescue, 5 μl of CoA solution were added to ‘rescue’ wells and 5 μl water to all control and reference wells, respectively. Parasite culture was added to a final concentration of 1% parasitaemia (% P) and 0.3% haematocrit (% H). Plates were incubated for 72 hr at 37°C, 5% CO2 and 95% humidity. On day 8 the permeabilization and nuclear staining buffer was prepared in PBS containing 10 μg/ml saponin, 0.01% triton X, 5 mM EDTA (all: Sigma) and 0.5 μg/ml 4′,6-diamidino-2-phenylindole (DAPI; Life Technologies). The plates were left for at least 4 hr (typically overnight), before confocal imaging on an Opera™ High Content Screening Platform (PerkinElmer) at 405 nm excitation with a 20x water objective. Automated primary image analysis was performed concurrent with the imaging process, utilizing an Acapella® software (PerkinElmer) script to determine the number of parasites based on object size and fluorescence intensity. Determination of the % growth compared to controls (2 μM artemisinin as positive and 0.4% DMSO as negative control) was performed in Microsoft® Excel 2010. Statistical analysis including IC50 determination and graphical output was performed in GraphPad Prism® 5 using non-linear regression variable slope curve fitting.

HEK293 cells [4] = assay: CoA chemical rescue on HEK293 cells; assay type: cell-based, human; conditions: dose response with and without CoA, n = 2
Experimental: as §1
as §2, with “Plates” for “Test compounds were prepared as described above, to give a top final test concentration of 40 μM, 0.4% DMSO. Plates”

| SMILES | IC50 (HEK293 cells [1]) | CoA rescue (relative parasite number, % of untreated control) [2] | IC50 shift upon CoA supplementation [2] | cytotoxic effect on HEK293 cells upon CoA addition (HEK293 cells [4]) | antiplasmodial activity of control compounds upon CoA supplementation [2] | also measured |
| --- | --- | --- | --- | --- | --- | --- |
| Cc1ccc(C(C)C)c(OCc2nc3ccccc3n2C)c1 [Amb1541406] | > 40 µM | 80% rescue at 2 μM | 1.5 times | – | – | inhibition of P. falciparum 3D7 ([3]; at 40 μM): 85% inhibition at 40 μM |
| OC1CCCCC1C1(NC(=S)Nc2ccccc2)CCCCC1 (stereo not shown) [Amb2368822/(MMV665980)] | > 40 µM | 80% rescue at 2 μM | more than doubled | – | – | parasite growth inhibition ([3]; MMV malaria box screen): 27%; parasite growth inhibition ([3]; original single dose screen, focussed compound library plate): 66%; parasite growth inhibition ([3]; retested twice from freshly dissolved solid): 98% and 90%; compound stability (inferred from lower activity of stored stock solution) ([3]; 100% DMSO stock at -20°C): potentially unstable; SI (selectivity index) ([3]; HEK293 IC50 value divided by P. falciparum IC50 value): > 6.3; IC50 [3]: 6.31 µM; IC50 ([3]; listed as Amb2368822): 6.3 µM |
| CC(=O)C1=C(c2ccccc2)C(=O)c2ccccc2C1=O [Amb4317088] | 2.33 µM | 80% rescue at 2 μM | more than doubled | reduced upon CoA addition | – | IC50 [3]: 1.23 µM |
| CC(C)(COP(=O)(O)OP(=O)(O)OC[C@H]1O[C@@H](n2cnc3c(N)ncnc32)[C@H](O)[C@@H]1OP(=O)(O)O)[C@@H](O)C(=O)NCCC(=O)NCCS [CoA, Coenzyme A] | – | – | – | – | – | P. falciparum growth [3]: not significantly altered |
| CC(C)(CO)C(O)C(=O)NCCCO (stereo not shown) [Panthenol, panthenol, reference compound] | – | – | – | completely negate | counteracted by CoA | cytotoxicity against HEK293 cells (HEK293 cells [1]; at 40 μM): cytotoxic effect; CoA rescue of growth inhibitory effect ([2]; CoA supplementation between 1 and 2 mM): fully rescued; P. falciparum growth [3]: dose-dependent P. falciparum growth inhibitor |
| C[C@@H]1CC[C@H]2[C@@H](C)C(=O)O[C@@H]3O[C@@]4(C)CC[C@@H]1[C@]32OO4 [artemisinin, reference compound] | – | – | – | – | not reduced by CoA supplementation | – |
| COc1ccc(C[C@H](N)C(=O)N[C@H]2[C@@H](O)[C@H](n3cnc4c(N(C)C)ncnc43)O[C@@H]2CO)cc1 [puromycin, reference compound] | – | – | – | no impact | – | – |
| CCc1nc(N)nc(N)c1-c1ccc(Cl)cc1 [pyrimethamine, reference compound] | – | – | – | – | not reduced by CoA supplementation | – |

Source: paper PMC4168161, “A novel approach for the discovery of chemically diverse anti-malarial compounds targeting the Plasmodium falciparum Coenzyme A synthesis pathway” (Malaria Journal, 2014)
